One block for each compound: values may come before it.
Target: T1, Bcl-2 protein (Recombinant Human Bcl-2 Protein) (Homo sapiens, UniProt P10415)
T1 construct: purchased Novus NBP2-34889
Experiment: Binding evaluation of mixture library compounds to Bcl-2 using AS-MS (affinity selection mass spectrometry)
Conditions: for ASMS ratio (%) n = 1 / ASMS ratio (%) n = 2: ASMS Ratio(%)=(A−C)/B×100; for ASMS ratio (%) n = 1: replicate n = 1; for ASMS ratio (%) n = 2: replicate n = 2
Procedure, shortened: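 ASMS Ratio (%) was calculated as (A−C)/B×100, where A is the protein sample after SEC, B the protein-free sample without SEC and C the protein-free sample after SEC. Each compound was at […] in a 1200-member pool with 20 μM Bcl-2, incubated 1 h at 23° C.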

[1] = AS-MS, mixture of 1200 compounds, Bcl-2
[2] = AS-MS on the mixture of 1200 library compounds

T1 sequence (P10415 whole entry): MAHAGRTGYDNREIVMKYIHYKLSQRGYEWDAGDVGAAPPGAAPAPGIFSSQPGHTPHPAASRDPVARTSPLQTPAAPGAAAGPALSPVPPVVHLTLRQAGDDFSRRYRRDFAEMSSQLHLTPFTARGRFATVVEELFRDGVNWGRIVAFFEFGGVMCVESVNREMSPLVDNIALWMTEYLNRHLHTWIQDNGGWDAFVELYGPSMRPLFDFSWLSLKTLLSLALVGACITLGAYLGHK

Compound: CCOc1cccc(-c2cnn(-c3cc(C(=O)N4CCN(c5ccc(C(=O)NCC67CC8CC(CC(C8)C6)C7)cc5)CC4)cc(C(F)(F)F)c3)c2)c1 [B1A043-01, N-(1-Adamantylmethyl)-4-[4-[3-[4-(3-ethoxyphenyl)pyrazol-1-yl]-5-(trifluoromethyl)benzoyl]piperazin-1-yl]benzamide]
- ASMS ratio (%) n = 1 [1]: 3.8%
- ASMS ratio (%) n = 2 [1]: −2.9%

Compound: CCOc1cccc(-c2cc(CN3CCN(c4ccc(C(=O)NS(C)(=O)=O)nn4)CC3)cc(C(F)(F)F)c2)c1 [B2I087-01, 6-[4-[[3-(3-Ethoxyphenyl)-5-(trifluoromethyl)phenyl]methyl]piperazin-1-yl]-N-methylsulfonylpyridazine-3-carboxamide]
- ASMS ratio (%) (n = 1): 1.3%
- ASMS ratio (%) (n = 2): −0.9%

Compound: CCOc1cccc(-c2cc(CN3CCN(c4ccc(C(=O)NS(=O)(=O)CC56CC7CC(CC(C7)C5)C6)cc4)CC3)cc(C(F)(F)F)c2)c1 [B2A061-01, N-(1-Adamantylmethylsulfonyl)-4-[4-[[3-(3-ethoxyphenyl)-5-(trifluoromethyl)phenyl]methyl]piperazin-1-yl]benzamide]
- ASMS ratio (%) n = 1 (AS-MS, mixture library, Bcl-2): 1.7%
- ASMS ratio (%) n = 2 (AS-MS, mixture library, Bcl-2): −5.6%

Compound: CCOc1cccc(C#Cc2cc(C(=O)N3CCN(c4ccc(C(=O)N(CC)CC)cc4)CC3)cc(C(F)(F)F)c2)c1 [B4J041-01, 4-[4-[3-[2-(3-Ethoxyphenyl)ethynyl]-5-(trifluoromethyl)benzoyl]piperazin-1-yl]-N,N-diethylbenzamide]
- ASMS ratio (%) n = 1 [2]: 2.8%
- ASMS ratio (%) n = 2 [2]: 1.7%

Compound: CCOc1cccc(-c2ccc(C(=O)N3CCN(c4ccc(C(=O)N(C)CC56CC7CC(CC(C7)C5)C6)cc4)CC3)cc2C)c1 [B3A025-01, N-(1-Adamantylmethyl)-4-[4-[4-(3-ethoxyphenyl)-3-methylbenzoyl]piperazin-1-yl]-N-methylbenzamide]
- ASMS ratio (%) n = 1 [2]: 15.7%
- ASMS ratio (%) n = 2 [2]: −19.6%

Compound: CCOc1cccc(-c2cc(C(=O)N3CCN(c4ccc(C(=O)NS(=O)(=O)c5ccc(NCCSc6ccccc6)c([N+](=O)[O-])c5)nn4)CC3)cc(C(C)(C)C)c2)c1 [B2Q015-01, 6-[4-[3-tert-Butyl-5-(3-ethoxyphenyl)benzoyl]piperazin-1-yl]-N-[3-nitro-4-(2-phenylsulfanylethylamino)phenyl]sulfonylpyridazine-3-carboxamide]
- ASMS ratio (%) n = 1 (AS-MS, mixture library, Bcl-2): 17.1%
- ASMS ratio (%) n = 2 (AS-MS, mixture library, Bcl-2): 13.2%

Compound: CCOc1cccc(-c2cc(CN3CCN(c4ccc(C(=O)NS(=O)(=O)CCC(F)(F)F)nn4)CC3)cc(OC(F)(F)F)c2)c1 [B2N089-01, 6-[4-[[3-(3-Ethoxyphenyl)-5-(trifluoromethoxy)phenyl]methyl]piperazin-1-yl]-N-(3,3,3-trifluoropropylsulfonyl)pyridazine-3-carboxamide]
- ASMS ratio (%) (n = 2): 0.0%

Compound: CCOc1cccc(-c2ccccc2CCC(=O)N2CCN(c3ccc(C(=O)N(C)CC45CC6CC(CC(C6)C4)C5)nn3)CC2)c1 [B3A011-01, N-(1-Adamantylmethyl)-6-[4-[3-[2-(3-ethoxyphenyl)phenyl]propanoyl]piperazin-1-yl]-N-methylpyridazine-3-carboxamide]
- ASMS ratio (%) n = 1 [2]: 4.5%
- ASMS ratio (%) n = 2 [2]: 2.0%

Compound: 4-[4-[4-(5-Ethoxypyridin-3-yl)naphthalene-1-carbonyl]piperazin-1-yl]-N-propylbenzamide [B1M074-01]
- ASMS ratio (%) n = 1 [1]: −1.6%
- ASMS ratio (%) n = 2 [1]: 0.9%

Compound: CCOc1cccc(-c2cc(C(=O)N3CCN(c4ccc(C(=O)NS(=O)(=O)C(C)(C)C)nn4)CC3)cc(C(F)(F)F)c2)c1 [B2L017-01, N-tert-Butylsulfonyl-6-[4-[3-(3-ethoxyphenyl)-5-(trifluoromethyl)benzoyl]piperazin-1-yl]pyridazine-3-carboxamide]
- ASMS ratio (%) (n = 1): 0.0%
- ASMS ratio (%) (n = 2): 0.0%

Compound: CCOc1cncc(-c2csc(CN3CCN(c4ccc(C(=O)NCC56CC7CC(CC(C7)C5)C6)nn4)CC3)c2)c1 [B1A094-01, N-(1-Adamantylmethyl)-6-[4-[[4-(5-ethoxypyridin-3-yl)thiophen-2-yl]methyl]piperazin-1-yl]pyridazine-3-carboxamide]
- ASMS ratio (%) n = 1 [1]: 6.2%
- ASMS ratio (%) n = 2 [1]: −0.7%

Compound: CCOc1cccc(-c2cc(CN3CCN(c4ccc(C(=O)NS(=O)(=O)c5ccc(NCCSc6ccccc6)c([N+](=O)[O-])c5)nn4)CC3)cc(OC(C)C)c2)c1 [B2Q083-01, 6-[4-[[3-(3-Ethoxyphenyl)-5-propan-2-yloxyphenyl]methyl]piperazin-1-yl]-N-[3-nitro-4-(2-phenylsulfanylethylamino)phenyl]sulfonylpyridazine-3-carboxamide]
- ASMS ratio (%) n = 2 (AS-MS, mixture library, Bcl-2): 0.0%

Compound: 6-[4-[[4-(5-Ethoxypyridin-3-yl)thiophen-2-yl]methyl]piperazin-1-yl]-N-propylpyridazine-3-carboxamide [B1M051-01]
- ASMS ratio (%) n = 1 [1]: 0.7%
- ASMS ratio (%) n = 2 [1]: 1.9%

Compound: 6-[4-[[4-(3-Ethoxyphenyl)-2-methoxyphenyl]methyl]piperazin-1-yl]-N-propylpyridazine-3-carboxamide [B1M094-01]
- ASMS ratio (%) n = 1 [2]: −1.5%
- ASMS ratio (%) n = 2 [2]: −2.1%

The next lines start with the values.

- ASMS ratio (%) n = 1 [2]: −0.3%
- ASMS ratio (%) n = 2 [2]: −1.6%
Compound: CCOc1cncc(-c2ccc(CN3CCN(c4ccc(C(=O)Nc5ccc(OC)cc5)cc4)CC3)cc2C)c1 [B1O048-01, 4-[4-[[4-(5-Ethoxypyridin-3-yl)-3-methylphenyl]methyl]piperazin-1-yl]-N-(4-methoxyphenyl)benzamide]

- ASMS ratio (%) (n = 1): 0.0%
- ASMS ratio (%) (n = 2): 0.0%
Compound: CCOc1cncc(C#Cc2cncc(C(=O)N3CCN(c4ccc(C(=O)NS(=O)(=O)CCC(F)(F)F)nn4)CC3)c2)c1 [B2N010-01, 6-[4-[5-[2-(5-Ethoxypyridin-3-yl)ethynyl]pyridine-3-carbonyl]piperazin-1-yl]-N-(3,3,3-trifluoropropylsulfonyl)pyridazine-3-carboxamide]

- ASMS ratio (%) (n = 1): 0.0%
- ASMS ratio (%) (n = 2): 0.0%
Compound: CCOc1cccc(-c2ccccc2CCC(=O)N2CCN(c3ccc(C(=O)NS(=O)(=O)CCC(F)(F)F)nn3)CC2)c1 [B2N011-01, 6-[4-[3-[2-(3-Ethoxyphenyl)phenyl]propanoyl]piperazin-1-yl]-N-(3,3,3-trifluoropropylsulfonyl)pyridazine-3-carboxamide]

- ASMS ratio (%) (n = 1): 0.0%
- ASMS ratio (%) (n = 2): −2.2%
Compound: CCOc1cccc(C#Cc2ccccc2CN2CCN(c3ccc(C(=O)NS(C)(=O)=O)cc3)CC2)c1 [B2I069-01]

- ASMS ratio (%) (n = 1): 0.0%
- ASMS ratio (%) (n = 2): 0.0%
Compound: CCOc1cccc(-c2ccc(CN3CCN(c4ccc(C(=O)NS(=O)(=O)CCC(F)(F)F)cc4)CC3)cc2C)c1 [B2N047-01, 4-[4-[[4-(3-Ethoxyphenyl)-3-methylphenyl]methyl]piperazin-1-yl]-N-(3,3,3-trifluoropropylsulfonyl)benzamide]

- ASMS ratio (%) n = 1 (AS-MS, mixture library, Bcl-2): 0.0%
- ASMS ratio (%) n = 2 (AS-MS, mixture library, Bcl-2): 1.6%
Compound: CCOc1cccc(-c2ccc(C(=O)N3CCN(c4ccc(C(=O)NS(C)(=O)=O)cc4)CC3)c3ccccc23)c1 [B2I035-01, 4-[4-[4-(3-Ethoxyphenyl)naphthalene-1-carbonyl]piperazin-1-yl]-N-methylsulfonylbenzamide]

- ASMS ratio (%) n = 1 (AS-MS, mixture library, Bcl-2): 26.1%
- ASMS ratio (%) n = 2 (AS-MS, mixture library, Bcl-2): 19.5%
Compound: CCOc1cncc(C#Cc2cc(C(=O)N3CCN(c4ccc(C(=O)NS(=O)(=O)c5ccc(NCCSc6ccccc6)c([N+](=O)[O-])c5)cc4)CC3)cc(C(F)(F)F)c2)c1 [B2Q042-01, 4-[4-[3-[2-(5-Ethoxypyridin-3-yl)ethynyl]-5-(trifluoromethyl)benzoyl]piperazin-1-yl]-N-[3-nitro-4-(2-phenylsulfanylethylamino)phenyl]sulfonylbenzamide]

- ASMS ratio (%) n = 1 [1]: 7.5%
- ASMS ratio (%) n = 2 [1]: 5.8%
Compound: CCOc1cccc(-c2ccc(C(=O)N3CCN(c4ccc(C(=O)NCC56CC7CC(CC(C7)C5)C6)nn4)CC3)cc2C)c1 [B1A003-01, N-(1-Adamantylmethyl)-6-[4-[4-(3-ethoxyphenyl)-3-methylbenzoyl]piperazin-1-yl]pyridazine-3-carboxamide]

- ASMS ratio (%) n = 1 (AS-MS, mixture library, Bcl-2): 0.0%
- ASMS ratio (%) n = 2 (AS-MS, mixture library, Bcl-2): 0.0%
Compound: CCOc1cncc(-c2ccc(CN3CCN(c4ccc(C(=O)NS(=O)(=O)CC56CC7CC(CC(C7)C5)C6)cc4)CC3)cc2F)c1 [B2A052-01, N-(1-Adamantylmethylsulfonyl)-4-[4-[[4-(5-ethoxypyridin-3-yl)-3-fluorophenyl]methyl]piperazin-1-yl]benzamide]

- ASMS ratio (%) n = 1 [2]: 1.8%
- ASMS ratio (%) n = 2 [2]: −5.9%
Compound: CCOc1cccc(-c2ccc(C(C)N3CCN(c4ccc(C(=O)N(C)CC56CC7CC(CC(C7)C5)C6)cc4)CC3)cc2)c1 (centres unmarked) [B3A097-01, N-(1-Adamantylmethyl)-4-[4-[1-[4-(3-ethoxyphenyl)phenyl]ethyl]piperazin-1-yl]-N-methylbenzamide]

- ASMS ratio (%) (n = 1): 0.0%
- ASMS ratio (%) (n = 2): −7.4%
Compound: CCOc1cncc(-c2ccc(CN3CCN(c4ccc(C(=O)NS(=O)(=O)c5ccc(NCCSc6ccccc6)c(C(F)(F)F)c5)cc4)CC3)cc2F)c1 [B2R052-01, 4-[4-[[4-(5-Ethoxypyridin-3-yl)-3-fluorophenyl]methyl]piperazin-1-yl]-N-[4-(2-phenylsulfanylethylamino)-3-(trifluoromethyl)phenyl]sulfonylbenzamide]

- ASMS ratio (%) n = 1 (AS-MS, mixture library, Bcl-2): 3.3%
- ASMS ratio (%) n = 2 (AS-MS, mixture library, Bcl-2): 0.4%
Compound: CCOc1cncc(-c2cc(C(=O)N3CCN(c4ccc(C(=O)NS(=O)(=O)c5ccc(NCCSc6ccccc6)c([N+](=O)[O-])c5)cc4)CC3)cc(C(C)(C)C)c2)c1 [B2Q038-01, 4-[4-[3-tert-Butyl-5-(5-ethoxypyridin-3-yl)benzoyl]piperazin-1-yl]-N-[3-nitro-4-(2-phenylsulfanylethylamino)phenyl]sulfonylbenzamide]

Source: patent publication US20240132431A1, “METHOD FOR ALKYLATING ACIDIC FUNCTIONAL GROUP” (Chugai Seiyaku Kabushiki Kaisha, priority 2021, published 2024)
